Test results published in US11219603B2, “Stable dosage form of etidronate-cytarabine conjugate, and use thereof” (MAXWELL BIOTECH GROUP LTD., priority 2015, dated 2022).

Test: Effect of MgCl2 on hydrolysis of MBC-11 in solution (formation of Ara-CMP at 25° C.)
Assay type: physicochemical
Conditions: 25° C.
Experimental: Studies were performed, where magnesium chloride was investigated as a stabilizer against hydrolytic decomposition. MgCl2 was added to solutions of MBC-11 conjugate in water, tartrate buffer (50 mmol/L, pH 5) and succinate buffer (50 mmol/L, pH 5). The following molar ratios of MgCl2 to MBC-11 were used: (1:2), (1:1), (2:1) and higher (˜12:1). […]

CC(O)(P(=O)(O)O)P(=O)(O)OP(=O)(O)OC[C@H]1O[C@@H](n2ccc(N)nc2=O)[C@@H](O)[C@@H]1O (some centres unmarked) [MBC-11]
Content of Ara-CMP (%) (Succinate buffer, MgCl2 0.87 mmol/L, MgCl2:MBC-11 1:2, t = 0 h): 2.6% | Content of Ara-CMP (%) (Succinate buffer, MgCl2 0.87 mmol/L, MgCl2:MBC-11 1:2, t = 4 h): 3.5% | Content of Ara-CMP (%) (Succinate buffer, MgCl2 0.87 mmol/L, MgCl2:MBC-11 1:2, t = 8 h): 4.4% | Content of Ara-CMP (%) (Succinate buffer, MgCl2 0.87 mmol/L, MgCl2:MBC-11 1:2, t = 24 h): 7.9% | Content of Ara-CMP (%) (Succinate buffer, MgCl2 1.73 mmol/L, MgCl2:MBC-11 1:1, t = 0 h): 2.5% | Content of Ara-CMP (%) (Succinate buffer, MgCl2 1.73 mmol/L, MgCl2:MBC-11 1:1, t = 4 h): 3.1% | Content of Ara-CMP (%) (Succinate buffer, MgCl2 1.73 mmol/L, MgCl2:MBC-11 1:1, t = 8 h): 3.7% | Content of Ara-CMP (%) (Succinate buffer, MgCl2 1.73 mmol/L, MgCl2:MBC-11 1:1, t = 24 h): 5.6% | Content of Ara-CMP (%) (Succinate buffer, MgCl2 3.5 mmol/L, MgCl2:MBC-11 2:1, t = 0 h): 2.6% | Content of Ara-CMP (%) (Succinate buffer, MgCl2 3.5 mmol/L, MgCl2:MBC-11 2:1, t = 4 h): 3.1% | Content of Ara-CMP (%) (Succinate buffer, MgCl2 3.5 mmol/L, MgCl2:MBC-11 2:1, t = 8 h): 3.7% | Content of Ara-CMP (%) (Succinate buffer, MgCl2 3.5 mmol/L, MgCl2:MBC-11 2:1, t = 24 h): 5.8% | Content of Ara-CMP (%) (Succinate buffer, MgCl2 20 mmol/L, MgCl2:MBC-11 ~12:1, t = 0 h): 2.5% | Content of Ara-CMP (%) (Succinate buffer, MgCl2 20 mmol/L, MgCl2:MBC-11 ~12:1, t = 4 h): 2.7% | Content of Ara-CMP (%) (Succinate buffer, MgCl2 20 mmol/L, MgCl2:MBC-11 ~12:1, t = 8 h): 2.9% | Content of Ara-CMP (%) (Succinate buffer, MgCl2 20 mmol/L, MgCl2:MBC-11 ~12:1, t = 24 h): 3.6% | Content of Ara-CMP (%) (Succinate buffer, no MgCl2, t = 0 h): 3.5% | Content of Ara-CMP (%) (Succinate buffer, no MgCl2, t = 4 h): 5.0% | Content of Ara-CMP (%) (Succinate buffer, no MgCl2, t = 8 h): 6.4% | Content of Ara-CMP (%) (Succinate buffer, no MgCl2, t = 24 h): 11.5% | Content of Ara-CMP (%) (Tartrate buffer, MgCl2 0.87 mmol/L, MgCl2:MBC-11 1:2, t = 0 h): 2.5% | Content of Ara-CMP (%) (Tartrate buffer, MgCl2 0.87 mmol/L, MgCl2:MBC-11 1:2, t = 4 h): 3.5% | Content of Ara-CMP (%) (Tartrate buffer, MgCl2 0.87 mmol/L, MgCl2:MBC-11 1:2, t = 8 h): 4.5% | Content of Ara-CMP (%) (Tartrate buffer, MgCl2 0.87 mmol/L, MgCl2:MBC-11 1:2, t = 24 h): 8.4% | Content of Ara-CMP (%) (Tartrate buffer, MgCl2 1.73 mmol/L, MgCl2:MBC-11 1:1, t = 0 h): 2.6% | Content of Ara-CMP (%) (Tartrate buffer, MgCl2 1.73 mmol/L, MgCl2:MBC-11 1:1, t = 4 h): 3.3% | Content of Ara-CMP (%) (Tartrate buffer, MgCl2 1.73 mmol/L, MgCl2:MBC-11 1:1, t = 8 h): 4.1% | Content of Ara-CMP (%) (Tartrate buffer, MgCl2 1.73 mmol/L, MgCl2:MBC-11 1:1, t = 24 h): 7.3% | Content of Ara-CMP (%) (Tartrate buffer, MgCl2 3.5 mmol/L, MgCl2:MBC-11 2:1, t = 0 h): 2.5% | Content of Ara-CMP (%) (Tartrate buffer, MgCl2 3.5 mmol/L, MgCl2:MBC-11 2:1, t = 4 h): 3.0% | Content of Ara-CMP (%) (Tartrate buffer, MgCl2 3.5 mmol/L, MgCl2:MBC-11 2:1, t = 8 h): 3.5% | Content of Ara-CMP (%) (Tartrate buffer, MgCl2 3.5 mmol/L, MgCl2:MBC-11 2:1, t = 24 h): 5.5% | Content of Ara-CMP (%) (Tartrate buffer, MgCl2 20 mmol/L, MgCl2:MBC-11 ~12:1, t = 0 h): 2.6% | Content of Ara-CMP (%) (Tartrate buffer, MgCl2 20 mmol/L, MgCl2:MBC-11 ~12:1, t = 4 h): 2.7% | Content of Ara-CMP (%) (Tartrate buffer, MgCl2 20 mmol/L, MgCl2:MBC-11 ~12:1, t = 8 h): 3.0% | Content of Ara-CMP (%) (Tartrate buffer, MgCl2 20 mmol/L, MgCl2:MBC-11 ~12:1, t = 24 h): 3.8% | Content of Ara-CMP (%) (Tartrate buffer, no MgCl2, t = 0 h): 3.8% | Content of Ara-CMP (%) (Tartrate buffer, no MgCl2, t = 4 h): 5.3% | Content of Ara-CMP (%) (Tartrate buffer, no MgCl2, t = 8 h): 6.6% | Content of Ara-CMP (%) (Tartrate buffer, no MgCl2, t = 24 h): 11.7% | Content of Ara-CMP (%) (Water, MgCl2 0.87 mmol/L, MgCl2:MBC-11 1:2, t = 0 h): 2.6% | Content of Ara-CMP (%) (Water, MgCl2 0.87 mmol/L, MgCl2:MBC-11 1:2, t = 4 h): 3.3% | Content of Ara-CMP (%) (Water, MgCl2 0.87 mmol/L, MgCl2:MBC-11 1:2, t = 8 h): 4.0% | Content of Ara-CMP (%) (Water, MgCl2 0.87 mmol/L, MgCl2:MBC-11 1:2, t = 24 h): 6.8% | Content of Ara-CMP (%) (Water, MgCl2 1.73 mmol/L, MgCl2:MBC-11 1:1, t = 0 h): 2.5% | Content of Ara-CMP (%) (Water, MgCl2 1.73 mmol/L, MgCl2:MBC-11 1:1, t = 4 h): 2.8% | Content of Ara-CMP (%) (Water, MgCl2 1.73 mmol/L, MgCl2:MBC-11 1:1, t = 8 h): 3.2%
